From US7482379B2, “Propenoyl hydrazides” (priority 2004, dated 2009)

What was measured:
Gingipain K = Gingipain K (Porphyromonas gingivalis, UniProt Q51817); assay: biochemical; type: biochemical; settings: for k2 Gingipain K: Table 3, Suc-Ala-Phe-Lys-AMC substrate, pH 8.0; for kinact/KI: pH 8, read-out: kobs/[I] Gingipain K
Clostripain = Clostripain (Hathewaya histolytica, UniProt P09870); settings: Table 3; Z-Phe-Arg-AMC substrate; pH 7.6
Description: Clostripain. […] All data obtained was processed by pseudo-first order kinetics,

Gingipain R = Gingipain R inhibition; type: biochemical; settings: Table 3
Caspase-6 = biological target: T1, Caspase-6 (Homo sapiens, UniProt P55212); assay: Caspase-6 progress curve inhibition assay; settings: second-order rate constant; Ac-DEVD-AMC substrate; Pipes buffer pH 7.2
T1 sequence (P55212 24-179 limits assumed): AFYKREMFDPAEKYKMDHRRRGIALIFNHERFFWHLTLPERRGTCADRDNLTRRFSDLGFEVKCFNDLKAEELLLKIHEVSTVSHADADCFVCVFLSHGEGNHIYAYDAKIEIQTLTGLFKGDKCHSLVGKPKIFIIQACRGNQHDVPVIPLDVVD
T1 sequence (P55212 194-293 limits assumed): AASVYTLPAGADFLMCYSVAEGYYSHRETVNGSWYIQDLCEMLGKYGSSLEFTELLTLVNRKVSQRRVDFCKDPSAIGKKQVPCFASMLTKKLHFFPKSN

Caspase-7 = biological target: T2, Caspase-7 (Homo sapiens, UniProt P55210); assay: Caspase-7 progress curve inhibition assay; settings: second-order rate constant; Ac-DEVD-AMC substrate; Pipes buffer pH 7.2
T2 sequence (P55210 24-198 limits assumed): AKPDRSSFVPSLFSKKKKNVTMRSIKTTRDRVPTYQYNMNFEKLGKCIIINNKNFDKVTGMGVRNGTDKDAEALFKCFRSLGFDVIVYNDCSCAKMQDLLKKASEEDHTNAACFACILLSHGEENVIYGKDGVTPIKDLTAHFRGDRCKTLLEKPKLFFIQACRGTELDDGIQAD
T2 sequence (P55210 207-303 limits assumed): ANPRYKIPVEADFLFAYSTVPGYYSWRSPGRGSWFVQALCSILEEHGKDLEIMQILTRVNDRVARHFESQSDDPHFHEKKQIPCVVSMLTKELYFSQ

Caspase-3 = biological target: T3, Caspase-3 (Homo sapiens, UniProt P42574); assay: Caspase-3 progress curve inhibition assay; settings: second-order rate constant; Ac-DEVD-AMC substrate; Pipes buffer pH 7.2
T3 sequence (P42574 29-175 limits assumed): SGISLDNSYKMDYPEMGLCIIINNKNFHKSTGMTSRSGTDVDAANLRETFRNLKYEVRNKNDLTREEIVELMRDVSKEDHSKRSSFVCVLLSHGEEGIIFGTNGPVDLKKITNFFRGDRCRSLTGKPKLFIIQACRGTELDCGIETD
T3 sequence (P42574 176-277 limits assumed): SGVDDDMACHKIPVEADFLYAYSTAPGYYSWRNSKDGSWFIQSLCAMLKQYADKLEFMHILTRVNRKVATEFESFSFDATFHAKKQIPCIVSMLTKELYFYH

Caspase-2 = biological target: T4, Caspase-2 (Homo sapiens, UniProt P42575); assay: Caspase-2 progress curve inhibition assay; settings: second-order rate constant; Cbz-VDVAD-AFC substrate; Pipes buffer pH 7.2
T4 sequence (P42575 170-333 limits assumed): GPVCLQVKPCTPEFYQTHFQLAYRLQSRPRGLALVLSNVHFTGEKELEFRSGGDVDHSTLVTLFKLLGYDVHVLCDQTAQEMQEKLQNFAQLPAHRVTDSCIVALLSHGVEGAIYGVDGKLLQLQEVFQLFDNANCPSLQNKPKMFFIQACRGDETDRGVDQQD
T4 sequence (P42575 348-452 limits assumed): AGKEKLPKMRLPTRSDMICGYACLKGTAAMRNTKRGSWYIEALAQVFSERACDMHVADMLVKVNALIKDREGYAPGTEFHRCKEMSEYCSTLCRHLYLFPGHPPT
Description: Inhibition rates were determined by the progress curve method known in the art. This method is suitable for measuring irreversible inhibition rates with fast inhibitors, where the inhibitor, the substrate and the enzyme are incubated together and the rate of substrate hydrolysis is measured continuously. The rate of substrate hydrolysis in the presence of the inhibitor was monitored for 20 minutes. The progress curve of inhibition, where the product formation approaches an asymptote is described in the equation ln([P∞]−[P])=ln[P∞]−A[I]t where [P] and [P∞] are the product concentrations at t and t=∞ respectively, A is the apparent rate constant in the presence of the substrate. The apparent rate constants were determined from the slopes of plots of ln ([P∞]−[P]) versus time (t) in seconds as previously described, where A=slope/[I].
(§1) For competitive and irreversible inhibition, the apparent rate constant is converted to the second order rate constant k2 by taking into consideration the effect of the substrate concentration on the apparent rate constant. The second order rate constant is described as in the equation: k2=A*(1+[S]/KM)
The concentration of the caspase-3 stock solution was 2 nM in the assay buffer. Assay buffer is a 1:1 mixture of caspase buffer (40 mM Pipes, 200 mM NaCl, 0.2% (w/v) CHAPS, sucrose 20% (w/v)) and 20 mM DTT solution in H2O at pH 7.2. The concentration of the substrate stock solution was 2 mM in DMSO. The enzyme was pre-activated for 10 min at 37° C. in the assay buffer. […] 50 μL of 2 nM enzyme stock solution (final concentration: 1 nM) was added to the mixture after 1 min and reading started immediately for 20 min at 37° C. Inhibition experiments were repeated in duplicate and standard deviations determined.
The inhibitor stock solution concentrations varied from 5×10^−3 M to 1×10^−4 M in DMSO.

Caspase-9 = biological target: T5, Caspase-9 (Homo sapiens, UniProt P55211); assay: Caspase-9 progress curve inhibition assay; settings: second-order rate constant; Ac-LEHD-AFC substrate; Hepes buffer pH 7.0 with 0.7 M sodium citrate
T5 sequence (P55211 1-315 limits assumed): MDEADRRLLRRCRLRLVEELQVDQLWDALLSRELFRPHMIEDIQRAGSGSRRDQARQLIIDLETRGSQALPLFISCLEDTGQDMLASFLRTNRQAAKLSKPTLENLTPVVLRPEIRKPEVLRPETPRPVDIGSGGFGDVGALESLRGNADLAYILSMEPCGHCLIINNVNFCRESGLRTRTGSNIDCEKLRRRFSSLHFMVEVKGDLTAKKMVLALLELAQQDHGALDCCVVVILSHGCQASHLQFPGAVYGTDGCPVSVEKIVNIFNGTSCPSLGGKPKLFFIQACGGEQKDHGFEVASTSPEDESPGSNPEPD
T5 sequence (P55211 331-416 limits assumed): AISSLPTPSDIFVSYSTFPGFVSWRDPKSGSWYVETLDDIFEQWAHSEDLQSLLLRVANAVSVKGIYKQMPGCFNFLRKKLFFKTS
Description: Caspases-2, -3, -6, -7, -8, -9 and -10 were expressed in E. coli and purified in Guy Salvesen's laboratory at the Burnham Institute, La Jolla, Calif., according to the methods known in the art. Inhibition rates were determined by the progress curve method known in the art. This method is suitable for measuring irreversible inhibition rates with fast inhibitors, where the inhibitor, the substrate and the enzyme are incubated together and the rate of substrate hydrolysis is measured continuously. The rate of substrate hydrolysis in the presence of the inhibitor was monitored for 20 minutes. The progress curve of inhibition, where the product formation approaches an asymptote is described in the equation ln([P∞]−[P])=ln[P∞]−A[I]t where [P] and [P∞] are the product concentrations at t and t=∞ respectively, A is the apparent rate constant in the presence of the substrate. The apparent rate constants were determined from the slopes of plots of ln ([P∞]−[P]) versus time (t) in seconds as previously described, where A=slope/[I].
as §1
Assay buffer is a 1:1 mixture of buffer (200 mM Hepes, 100 mM NaCl, 0.02% (w/v) CHAPS, sucrose 20% (w/v)) and 20 mM DTT solution in H2O at pH 7.0). The assay buffer was supplemented with 0.7 M sodium citrate. The enzyme was pre-activated for 10 min at 37° C. in the assay buffer.

Caspase-10 = biological target: T6, Caspase-10 (Homo sapiens, UniProt Q92851); assay: Caspase-10 progress curve inhibition assay; settings: second-order rate constant; Ac-DEVD-AMC substrate; Hepes/PEG buffer pH 7.0
T6 sequence (Q92851 220-415 limits assumed): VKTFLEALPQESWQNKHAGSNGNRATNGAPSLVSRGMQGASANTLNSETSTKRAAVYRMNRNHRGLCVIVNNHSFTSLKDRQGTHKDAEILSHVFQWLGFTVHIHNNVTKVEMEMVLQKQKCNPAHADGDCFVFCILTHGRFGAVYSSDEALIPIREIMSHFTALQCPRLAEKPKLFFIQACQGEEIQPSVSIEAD
T6 sequence (Q92851 416-521 limits assumed): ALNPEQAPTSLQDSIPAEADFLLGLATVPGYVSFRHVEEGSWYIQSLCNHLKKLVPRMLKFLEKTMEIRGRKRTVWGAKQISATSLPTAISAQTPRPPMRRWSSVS
Description: Caspase-2, -3, -6, -7, -8, -9 and -10. Caspases-2, -3, -6, -7, -8, -9 and -10 were expressed in E. coli and purified in Guy Salvesen's laboratory at the Burnham Institute, La Jolla, Calif., according to the methods known in the art. Inhibition rates were determined by the progress curve method known in the art. This method is suitable for measuring irreversible inhibition rates with fast inhibitors, where the inhibitor, the substrate and the enzyme are incubated together and the rate of substrate hydrolysis is measured continuously. The rate of substrate hydrolysis in the presence of the inhibitor was monitored for 20 minutes. The progress curve of inhibition, where the product formation approaches an asymptote is described in the equation ln([P∞]−[P])=ln[P∞]−A[I]t where [P] and [P∞] are the product concentrations at t and t=∞ respectively, A is the apparent rate constant in the presence of the substrate. The apparent rate constants were determined from the slopes of plots of ln ([P∞]−[P]) versus time (t) in seconds as previously described, where A=slope/[I].
as §1
Assay buffer is a 1:1 mixture of buffer (200 mM Hepes, 0.2% (w/v) CHAPS, PEG 20% (w/v)) and 20 mM DTT solution in H2O at pH 7.0). The enzyme was pre-activated for 10 min at 25° C. in the assay buffer.

Caspase-8 = Caspase-8 (Homo sapiens, UniProt Q14790); assay: Caspase-8 progress curve inhibition assay; settings: second-order rate constant; Ac-DEVD-AMC substrate; Pipes buffer pH 7.2
S. mansoni legumain = S. mansoni legumain (Schistosoma mansoni, UniProt P09841, N192C); assay: S. mansoni legumain (SmAE) inhibition assay; type: biochemical
Description: Studies with the propenoyl hydrazides using the schistosome legumain […], (Schistosoma mansoni asparaginyl endopeptidase) were also performed. […] The actual active site enzyme concentration is unknown. The lyophilized enzyme ([…]) was reconstituted in 1.5 mL 0.5 M sodium acetate, pH 4.5 containing 4 mM DTT, and left to stand at 37° C. for 3-4 hours to allow for auto-activation of the zymogen. In a black 96-well microtiter plate, 50 μL of activated enzyme was added to an equal volume of 0.1 M citrate-phosphate buffer pH 6.8 containing 4 mM DTT. Inhibitor stock solutions (20 mM) were prepared in DMSO. Serial dilutions (using water) of inhibitor were added (as 1 μL aliquots) to yield concentrations of between 2 and 0.00002 μM inhibitor. […] After incubating various inhibitor concentrations with enzyme, 100 μL of the same buffer containing 20 μM substrate (Cbz-Ala-Ala-Asn-AMC) was added to the wells and the reaction monitored at room temperature with linear kinetics up to 20 minutes. Inhibitors are tested in duplicate. A plot of the RFU/min versus the inhibitor concentration [μM] permitted calculation of an IC50 value and estimation of the kobs/[I].

Chain of Clostripain (P09870 51-526): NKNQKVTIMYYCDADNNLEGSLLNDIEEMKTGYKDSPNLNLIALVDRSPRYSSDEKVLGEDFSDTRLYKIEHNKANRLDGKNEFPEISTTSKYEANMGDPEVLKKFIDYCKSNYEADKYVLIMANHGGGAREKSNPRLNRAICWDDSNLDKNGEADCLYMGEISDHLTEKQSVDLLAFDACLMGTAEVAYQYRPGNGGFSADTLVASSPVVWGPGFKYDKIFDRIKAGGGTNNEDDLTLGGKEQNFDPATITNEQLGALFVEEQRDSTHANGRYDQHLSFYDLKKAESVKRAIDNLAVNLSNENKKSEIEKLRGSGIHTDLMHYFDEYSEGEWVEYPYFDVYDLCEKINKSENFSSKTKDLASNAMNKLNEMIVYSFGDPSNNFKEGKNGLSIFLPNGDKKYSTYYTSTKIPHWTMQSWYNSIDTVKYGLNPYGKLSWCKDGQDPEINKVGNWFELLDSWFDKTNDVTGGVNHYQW
Chain of Gingipain K (Q51817 229-1732 limits assumed): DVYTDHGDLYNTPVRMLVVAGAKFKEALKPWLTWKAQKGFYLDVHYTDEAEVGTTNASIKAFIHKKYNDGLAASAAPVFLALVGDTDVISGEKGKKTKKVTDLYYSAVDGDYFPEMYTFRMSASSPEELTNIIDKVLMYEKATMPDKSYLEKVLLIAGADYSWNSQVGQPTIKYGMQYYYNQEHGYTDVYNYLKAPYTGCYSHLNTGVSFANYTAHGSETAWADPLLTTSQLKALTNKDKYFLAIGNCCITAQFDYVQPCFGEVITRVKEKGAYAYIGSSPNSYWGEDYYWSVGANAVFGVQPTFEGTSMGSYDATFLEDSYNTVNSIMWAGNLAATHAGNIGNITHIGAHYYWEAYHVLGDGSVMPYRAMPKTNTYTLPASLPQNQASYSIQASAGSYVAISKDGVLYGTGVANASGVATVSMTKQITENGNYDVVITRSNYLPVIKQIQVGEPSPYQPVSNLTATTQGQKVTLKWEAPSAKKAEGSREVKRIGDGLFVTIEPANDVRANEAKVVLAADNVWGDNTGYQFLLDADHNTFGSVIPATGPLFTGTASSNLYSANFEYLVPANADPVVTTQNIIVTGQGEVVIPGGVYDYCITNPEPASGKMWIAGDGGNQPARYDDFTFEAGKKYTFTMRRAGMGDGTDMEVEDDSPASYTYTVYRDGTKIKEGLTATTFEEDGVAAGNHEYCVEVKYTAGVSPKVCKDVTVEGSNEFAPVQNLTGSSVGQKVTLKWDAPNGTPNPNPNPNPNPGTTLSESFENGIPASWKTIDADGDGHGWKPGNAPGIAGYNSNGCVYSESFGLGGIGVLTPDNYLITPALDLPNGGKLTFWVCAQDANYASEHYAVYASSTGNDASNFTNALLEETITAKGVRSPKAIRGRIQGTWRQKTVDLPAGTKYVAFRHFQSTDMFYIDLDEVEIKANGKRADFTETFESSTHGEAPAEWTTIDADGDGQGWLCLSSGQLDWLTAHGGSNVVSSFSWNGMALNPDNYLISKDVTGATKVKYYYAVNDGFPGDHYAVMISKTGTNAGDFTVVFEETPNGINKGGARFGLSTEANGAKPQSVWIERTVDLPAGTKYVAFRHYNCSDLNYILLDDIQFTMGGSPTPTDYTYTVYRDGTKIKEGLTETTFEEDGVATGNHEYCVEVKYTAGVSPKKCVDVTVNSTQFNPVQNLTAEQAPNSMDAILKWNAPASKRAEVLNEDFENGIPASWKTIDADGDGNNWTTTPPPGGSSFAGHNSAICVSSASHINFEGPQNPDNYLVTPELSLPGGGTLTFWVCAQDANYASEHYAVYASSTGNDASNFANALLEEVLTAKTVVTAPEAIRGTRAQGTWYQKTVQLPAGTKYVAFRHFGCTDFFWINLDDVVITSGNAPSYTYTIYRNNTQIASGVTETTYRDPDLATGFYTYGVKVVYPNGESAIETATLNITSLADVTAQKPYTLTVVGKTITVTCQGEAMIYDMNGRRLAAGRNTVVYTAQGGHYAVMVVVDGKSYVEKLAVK
Chain of Caspase-8 (Q14790 217-374 limits assumed): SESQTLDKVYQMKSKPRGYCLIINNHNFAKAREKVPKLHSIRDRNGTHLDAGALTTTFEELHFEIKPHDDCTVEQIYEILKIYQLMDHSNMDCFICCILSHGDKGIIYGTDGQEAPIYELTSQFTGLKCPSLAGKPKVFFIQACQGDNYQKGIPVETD
Chain of Caspase-8 (Q14790 385-479 limits assumed): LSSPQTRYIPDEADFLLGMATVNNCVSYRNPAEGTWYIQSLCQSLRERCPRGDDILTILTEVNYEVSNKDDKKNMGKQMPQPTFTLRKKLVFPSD
Chain of S. mansoni legumain (P09841 32-291 N192C): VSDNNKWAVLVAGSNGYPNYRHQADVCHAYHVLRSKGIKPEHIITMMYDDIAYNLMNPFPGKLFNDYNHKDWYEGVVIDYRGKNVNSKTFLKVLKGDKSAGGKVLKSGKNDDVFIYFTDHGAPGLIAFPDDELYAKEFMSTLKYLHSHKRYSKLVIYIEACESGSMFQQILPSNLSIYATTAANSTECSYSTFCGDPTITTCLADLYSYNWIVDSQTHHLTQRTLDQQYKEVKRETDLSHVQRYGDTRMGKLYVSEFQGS

| SMILES | k2 Gingipain K (Gingipain K) | k2 Clostripain (Clostripain) | k2 Gingipain R (Gingipain R) | further results |
| --- | --- | --- | --- | --- |
| CC(NC(=O)OCc1ccccc1)C(=O)NC(C)C(=O)NN(CC(N)=O)C(=O)C=CC(=O)N(C)c1ccc2ccccc2c1 (stereo not drawn) | – | – | – | kobs/[I] Gingipain K (Gingipain K; Table 6, legumain specific inhibitors, NI = no inhibition after 20 minutes of incubation): 6 M⁻¹ s⁻¹ |
| CC(C)C[C@H](NC(=O)CCc1ccccc1)C(=O)NN(CCCCN)C(=O)C=CC(=O)N(Cc1ccccc1)Cc1ccc2ccccc2c1 | 811,000 M^−1s^−1 | 17,500 M^−1s^−1 | 98 M⁻¹ s⁻¹ | – |
| CC(C)CC(NC(=O)CCc1ccccc1)C(=O)NN(CCCCN)C(=O)C=CC(=O)N(C)Cc1cccc2ccccc12 (stereo not drawn) | 975,000 M^−1s^−1 | 639 M⁻¹ s⁻¹ | 576 M⁻¹ s⁻¹ | – |
| CC(C)C[C@H](NC(=O)OCc1ccccc1)C(=O)N[C@@H](CCC(=O)O)C(=O)N[C@H](C(=O)NN(CC(=O)O)C(=O)/C=C/C(=O)N(C)Cc1cccc2ccccc12)[C@@H](C)O (relative stereo) [N^2—(N-Benzyloxycarbonylleucylglutamylthreonyl)-N^1-carboxylmethyl-N^1-trans-(3-(methyl-1-naphthylmethyl)carbamoylpropenoyl)hydrazine] | – | – | – | k2 Caspase-6 (Caspase-6): 21,700 M^−1s^−1; k2 Caspase-7 (Caspase-7): 1,100 M^−1s^−1; k2 Caspase-3 (Caspase-3): 11,200 M^−1s^−1; k2 Caspase-2 (Caspase-2): 290 M⁻¹ s⁻¹; k2 Caspase-9 (Caspase-9): 5,030 M^−1s^−1; k2 Caspase-10 (Caspase-10): 13,600 M^−1s^−1; k2 Caspase-8 (Caspase-8): 179,000 M^−1s^−1 |
| CC(C)C[C@H](NC(=O)OCc1ccccc1)C(=O)N[C@@H](CCC(=O)O)C(=O)N[C@H](C(=O)NN(CC(=O)O)C(=O)/C=C/C(=O)N(C)CCc1ccccc1)[C@@H](C)O (relative stereo) [N^2—(N-Benzyloxycarbonylleucylglutamylthreonyl)-N^1-carboxylmethyl-N^1-trans-(3-methylphenylethylcarbamoylpropenoyl)hydrazine] | – | – | – | k2 Caspase-6 (Caspase-6): 2,550 M^−1s^−1; k2 Caspase-7 (Caspase-7): 290 M⁻¹ s⁻¹; k2 Caspase-3 (Caspase-3): 2,620 M^−1s^−1; k2 Caspase-2 (Caspase-2): 50 M⁻¹ s⁻¹; k2 Caspase-9 (Caspase-9): 960 M⁻¹ s⁻¹; k2 Caspase-10 (Caspase-10): 6,190 M^−1s^−1; k2 Caspase-8 (Caspase-8): 65,300 M^−1s^−1 |
| C[C@H](NC(=O)OCc1ccccc1)C(=O)N[C@@H](C)C(=O)NN(CC(N)=O)C(=O)/C=C/C(=O)N1CCc2ccccc21 [Cbz-Ala-Ala-AAsn-CH═CH—CO-indoline, N^2—(N-Benzyloxycarbonylalanylalanyl)-N^1-carbamoylmethyl-N^1-trans-(3-(2,3-dihydroindol-1-yloxo)propenoyl)hydrazine] | – | – | – | IC50 (S. mansoni legumain): 70 nM; kinact/KI (Gingipain K): 1 M⁻¹ s⁻¹ |
| C[C@H](NC(=O)OCc1ccccc1)C(=O)N[C@@H](C)C(=O)NN(CC(N)=O)C(=O)/C=C/C(=O)N(C)Cc1ccccc1 [Cbz-Ala-Ala-AAsn-CH═CH—CON(CH3)Bzl, N^2—(N-Benzyloxycarbonylalanylalanyl)-N^1-carbamoylmethyl-N^1-trans-(3-benzylmethylcarbamoylpropenoyl)hydrazine] | – | – | – | kinact/KI (Gingipain K): 1 M⁻¹ s⁻¹ |
| CCOC(=O)C=CC(=O)N(CCCN)NC(=O)C(C)NC(=O)CCc1ccccc1 (stereo not drawn) [PhPr-Ala-AOrn-CH═CH—COOEt] | 632,000 M^−1s^−1 | – | 18 M⁻¹ s⁻¹ | – |
| CC(C)CC(NC(=O)CCc1ccccc1)C(=O)NN(CCCNC(=N)N)C(=O)C=CC(=O)N(Cc1ccccc1)Cc1ccccc1 (stereo not drawn) [PhPr-Leu-AArg-CH═CH—CON(CH2Ph)2] | – | 474,000 M^−1s^−1 | 804,000 M^−1s^−1 | – |
| CC(C)CC(NC(=O)CCc1ccccc1)C(=O)NN(CCCNC(=N)N)C(=O)C=CC(=O)NCc1ccccc1 (stereo not drawn) [PhPr-Leu-AArg-CH═CH—CONHCH2Ph] | – | 287,000 M^−1s^−1 | 555,000 M^−1s^−1 | – |
| CCOC(=O)C=CC(=O)N(CCCNC(=N)N)NC(=O)C(CC(C)C)NC(=O)CCc1ccccc1 (stereo not drawn) [PhPr-Leu-AArg-CH═CH—COOEt] | 1,580 M^−1s^−1 | 69,600 M^−1s^−1 | – | – |
| CC(C)C[C@H](NC(=O)CCc1ccccc1)C(=O)NN(CCCCN)C(=O)C=CC(=O)N(Cc1ccccc1)Cc1ccc(F)cc1 [PhPr-Leu-ALys-CH═CH—CON(Bzl)-p-CH2C6H4F] | 801,000 M^−1s^−1 | 13,800 M^−1s^−1 | 75 M⁻¹ s⁻¹ | – |
| CC(C)CC(NC(=O)CCc1ccccc1)C(=O)NN(CCCCN)C(=O)C=CC(=O)N(Cc1cccc2ccccc12)Cc1cccc2ccccc12 (stereo not drawn) [PhPr-Leu-ALys-CH═CH—CON(CH2-1-naphthyl2] | 1,890,000 M^−1s^−1 | 2,250 M^−1s^−1 | 214 M⁻¹ s⁻¹ | – |
| CC(C)CC(NC(=O)CCc1ccccc1)C(=O)NN(CCCCN)C(=O)C=CC(=O)N(Cc1ccccc1)Cc1ccccc1 (stereo not drawn) [PhPr-Leu-ALys-CH═CH—CON(CH2Ph)2] | 2,130,000 M^−1s^−1 | 20,000 M^−1s^−1 | 65 M⁻¹ s⁻¹ | – |
| CC(C)CC(NC(=O)CCc1ccccc1)C(=O)NN(CCCCN)C(=O)C=CC(=O)N(C)Cc1ccccc1 (stereo not drawn) [PhPr-Leu-ALys-CH═CH—CON(Me)CH2Ph] | 1,360,000 M^−1s^−1 | 6,000 M^−1s^−1 | 79 M⁻¹ s⁻¹ | – |
| CC(C)CC(NC(=O)CCc1ccccc1)C(=O)NN(CCCCN)C(=O)C=CC(=O)OCc1ccccc1 (stereo not drawn) [PhPr-Leu-ALys-CH═CH—COOCH2Ph] | – | 20,500 M^−1s^−1 | 632 M⁻¹ s⁻¹ | – |
| CC(C)C[C@H](NC(=O)CCc1ccccc1)C(=O)NN(CCCN)C(=O)C=CC(=O)NCc1ccccc1 [PhPr-Leu-AOrn-CH═CH—CONHCH2Ph] | 24,700 M^−1s^−1 | – | 71 M⁻¹ s⁻¹ | – |
